Five molecules from US8420607B2 (priority 2006, dated 2013) can be followed below.

The test system of test [1] is IgG antibodies of rabbit anti-live spore, anti-irradiated spore and anti-polysaccharide-KLH antisera. The test is classed as binding.
In test [2] the test system is rabbit anti-spore serum (live spore antiserum). The test is classed as binding.
Test [3] deals with rabbit anti-live spore B. anthracis Sterne 34F2 antiserum. The test is classed as binding.
In test [4] the test system is rabbit anti-irradiated spore B. anthracis Sterne 34F2 antiserum. The test is classed as binding.
Test [5] relates to anti-anthrose IgG in rhesus macaque sera. The test is classed as binding, rhesus macaques.
Test [6] deals with rabbit anti-B. anthracis live spore antiserum IgG. The test is classed as binding.

Turning to `CC1OC(OC2C(O)C(C)OC(OCCCN)C2O)C(O)C(OC2OC(C)C(NC(=O)CC(C)(C)O)C(O)C2O)C1O` [trisaccharide 2, 3-aminopropyl O-(4-(3-hydroxy-3-methylbutamido)-4,6-dideoxy-β-D-glucopyranosyl)-(1→3)-O-(α-L-rhamnopyranosyl)-(1→3)-α-L-rhamnopyranoside], the “Relative recognition by antibodies elicited by the live spore vaccine” value in test [1] is recorded as “recognized trisaccharide 2 much better than 1”.
As to maltoheptaose [reference compound], the “Inhibition of antiserum binding to B. anthracis HF-PS-BSA” value in test [2] was “no significant inhibition”.
Turning to `CO[C@H]1[C@H](O[C@@H]2[C@@H](O)[C@H](C)O[C@@H](O[C@@H]3[C@@H](O)[C@H](C)O[C@@H](OCCCN)[C@@H]3O)[C@@H]2O)O[C@H](C)[C@@H](NC(=O)CC(C)(C)O)[C@@H]1O` [trisaccharide 1, 3-aminopropyl O-(4-(3-hydroxy-3-methylbutamido)-2-O-methyl-4,6-dideoxy-β-D-glucopyranosyl)-(1→3)-O-(α-L-rhamnopyranosyl)-(1→3)-α-L-rhamnopyranoside], in test [3], the “Drop in OD by competing free trisaccharide” value is listed as “significant drop in OD”. Besides, the “Inhibition of interaction of antisera from rabbits immunized with irradiated spores” value in test [4] was “could also be inhibited in a dose response manner”. Besides, in test [5], the “Inhibition of anti-anthrose response measured by ELISA” value is “specifically inhibited”, the “Inhibition of serum binding to KLH-A-3” value is listed as “inhibited binding” and the “Inhibition of serum binding to KLH-conjugated trisaccharide” value was “Binding could be specifically inhibited”. The “Inhibition of antiserum binding to B. anthracis Pasteur HF-PS-BSA” value in test [6] was “no inhibition was observed”.
Turning to `COC1C(OC2C(O)C(C)OC(OC3C(O)C(C)OC(OCCCN)C3O)C2O)OC(C)C(NC(=O)CC(C)C)C1O` [trisaccharide 3, 3-aminopropyl O-(4-(3-methylbutamido)-2-O-methyl-4,6-dideoxy-β-D-glucopyranosyl)-(1-→3)-O-(α-L-rhamnopyranosyl)-(1→3)-α-L-rhamnopyranoside], in test [3], the “Reduction in reporter signal (OD) compared to the control” value is recorded as 85%.
For `COC1C(OC2C(O)C(C)OC(OC3C(O)C(C)OC(OCCCN)C3O)C2O)OC(C)C(NC(C)=O)C1O` [analogue 4, 3-aminopropyl O-(4-acetamido-2-O-methyl-4,6-dideoxy-β-D-glucopyranosyl)-(1→3)-O-(α-L-rhamnopyranosyl)-(1→3)-β-L-rhamnopyranoside], the “Reduction in reporter signal (OD) compared to the control” value in test [3] stood at 17%.
